Results from patent US12686682B2, “Indazole acetylene derivatives” (Hoffmann-La Roche Inc., priority 2020, dated 2026).

Target: T1, Phospho EGFR LRCS (BaF3-LRCS cell line) (Homo sapiens, UniProt P00533, C797S/L858R)
T1 construct: host or cells: BaF3 (BaF3-LRCS), kept under puromycin selection
Assay: HTRF Phospho EGFR LRCS Assay (Cellular)
Type: cell-based
Conditions: BaF3-LRCS cells, 4 hours incubation, HTRF phospho-EGFR readout
Procedure: HTRF Phospho EGFR LRCS Assay (Cellular)
BaF3-LRCS cell line were obtained from Crownbio (San Diego, CA, USA). Cells were maintained at 37° C., 5% C02 in RPMI ATCC (Gibco 31870)+2 mM Glutamine+0.5 μg/ml Puromycin supplemented with 10% fetal bovine serum (FBS) (Gibco).
Cells are transferred as above to Greiner Bio-One, Nr. 784-08 micro-titerplate at 20000 cells/well in 12.5 μl of growth medium/well after the plates had been pre-filled with 12.5 nl of DMSO solutions of the to be tested compounds (in dose response) or DMSO only. After spinning the plates at 300×g for 30 seconds the cells were incubated for 4 hours at 37 C, 5% C02, 95% humidity. The cells were lysed by adding to the compound mix 4 µl/well of the supplemented lysis buffer (Cis-bio, Phospho-EGFR HTRF kit, 64EG1PEH), followed by incubation for 30 min at room temperature with shaking (400 rpm). The plates were then frozen and stored overnight at −80° C. On the next day and after thawing the plates, 4 μl of a mixture of anti-Phospho-EGFR Cryptate and of anti-Phospho-EGFR-d2 antibody solutions prepared in the supplied detection buffer was added to each well. The lidded plates were then incubated for 4 h at room temperature before reading the fluorescence emission at 616 and 665 nm using an Envision reader (Perkin Elmer). Data was analyzed in similar fashion as above using the normalized ratio of the 665 to 616 signals multiplied by 10000.

T1 sequence (P00533 25-1210 C797S/L858R): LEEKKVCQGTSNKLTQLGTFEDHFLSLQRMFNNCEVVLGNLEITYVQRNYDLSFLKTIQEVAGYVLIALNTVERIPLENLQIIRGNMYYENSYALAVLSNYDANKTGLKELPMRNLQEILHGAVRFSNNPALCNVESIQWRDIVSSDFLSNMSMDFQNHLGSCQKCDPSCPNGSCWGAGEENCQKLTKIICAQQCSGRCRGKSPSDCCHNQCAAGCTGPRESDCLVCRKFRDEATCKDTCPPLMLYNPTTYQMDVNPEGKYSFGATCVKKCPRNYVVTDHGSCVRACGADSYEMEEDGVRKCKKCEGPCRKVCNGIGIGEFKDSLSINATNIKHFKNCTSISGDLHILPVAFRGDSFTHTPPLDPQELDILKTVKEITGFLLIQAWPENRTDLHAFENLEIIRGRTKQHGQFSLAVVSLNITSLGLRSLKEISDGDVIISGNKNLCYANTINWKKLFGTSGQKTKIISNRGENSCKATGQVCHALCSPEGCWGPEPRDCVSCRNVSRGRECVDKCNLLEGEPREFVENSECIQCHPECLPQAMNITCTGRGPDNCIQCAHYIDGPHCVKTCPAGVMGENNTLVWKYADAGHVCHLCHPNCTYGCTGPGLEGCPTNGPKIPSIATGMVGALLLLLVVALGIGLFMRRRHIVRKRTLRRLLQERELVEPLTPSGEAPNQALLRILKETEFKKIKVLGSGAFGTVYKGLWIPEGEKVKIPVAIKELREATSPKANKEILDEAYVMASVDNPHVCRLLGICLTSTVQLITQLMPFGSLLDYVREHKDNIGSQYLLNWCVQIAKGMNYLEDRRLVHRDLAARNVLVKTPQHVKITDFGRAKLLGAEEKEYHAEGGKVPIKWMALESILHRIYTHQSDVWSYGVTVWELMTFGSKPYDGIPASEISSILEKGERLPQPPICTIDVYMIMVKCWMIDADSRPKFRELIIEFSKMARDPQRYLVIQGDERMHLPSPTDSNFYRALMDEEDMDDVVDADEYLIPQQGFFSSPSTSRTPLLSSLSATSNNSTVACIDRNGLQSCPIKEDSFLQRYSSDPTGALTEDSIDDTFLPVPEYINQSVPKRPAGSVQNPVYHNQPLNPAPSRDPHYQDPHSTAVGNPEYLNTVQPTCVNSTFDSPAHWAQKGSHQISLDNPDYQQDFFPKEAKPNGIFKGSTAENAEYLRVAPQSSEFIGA

| SMILES | IC50 [nM] |
| --- | --- |
| Cc1c(C#Cc2ccc(CN3CCC(CO)CC3)cc2)cc(C(F)(F)F)c2cn(C(C(=O)Nc3nccs3)c3ncn4c3CCC4(C)C)nc12 (centres unmarked) [Example 8, 2-(5,5-Dimethyl-6,7-dihydropyrrolo[1,2-c]imidazol-1-yl)-2-[6-[2-[4-[[4-(hydroxymethyl)-1-piperidyl]methyl]phenyl]ethynyl]-7-methyl-4-(trifluoromethyl)indazol-2-yl]-N-thiazol-2-yl-acetamide] | 12 |
| Cc1c(C#Cc2ccc(CN3CCC(CO)CC3)cc2)cc(C(F)F)c2cn(C(C(=O)Nc3nccs3)c3ncn4c3CCC4(C)C)nc12 (centres unmarked) [Example 5, 2-[4-(Difluoromethyl)-6-[2-[4-[[4-(hydroxymethyl)-1-piperidyl]methyl]phenyl]ethynyl]-7-methyl-indazol-2-yl]-2-(5,5-dimethyl-6,7-dihydropyrrolo[1,2-c]imidazol-1-yl)-N-thiazol-2-yl-acetamide] | 11 |
| Cc1c(C#Cc2ccc(CN3CCC(CO)CC3)cc2)cc(C(F)F)c2cn(C(C(=O)Nc3nccs3)c3ncn4c3CCC43CC3)nc12 (centres unmarked) [Example 6] | 10 |
| Cc1c(C#Cc2ccc(CN3CCC(CO)CC3)cc2)cc(C(F)F)c2cn(C(C(=O)Nc3nccs3)c3ncn4c3CCC4)nc12 (centres unmarked) [Example 2, 2-[4-(Difluoromethyl)-6-[2-[4-[[4-(hydroxymethyl)-1-piperidyl]methyl]phenyl]ethynyl]-7-methyl-indazol-2-yl]-2-(6,7-dihydro-5H-pyrrolo[1,2-c]imidazol-1-yl)-N-thiazol-2-yl-acetamide] | 23 |

Further compounds by falling IC50, results first:

| IC50 [nM] | SMILES |
| --- | --- |
| 22 | Cc1c(C#Cc2ccc(CN3CCC(CO)CC3)cc2)cc(C(F)F)c2cn(C(C(=O)Nc3nccs3)c3ncn4c3C[C@@H](F)C4)nc12 (stereo partly drawn) [Example 1, 2-[4-(Difluoromethyl)-6-[2-[4-[[4-(hydroxymethyl)-1-piperidyl]methyl]phenyl]ethynyl]-7-methyl-indazol-2-yl]-2-[(6R)-6-fluoro-6,7-dihydro-5H-pyrrolo[1,2-c]imidazol-1-yl]-N-thiazol-2-yl-acetamide] |
| 15 | Cc1c(C#Cc2ccc(CN3CCC(CO)CC3)cc2)cc(C(F)(F)F)c2cn(C(C(=O)Nc3nccs3)c3ncn4c3C[C@@H](F)C4)nc12 (stereo partly drawn) [Example 3, 2-[(6R)-6-Fluoro-6,7-dihydro-5H-pyrrolo[1,2-c]imidazol-1-yl]-2-[6-[2-[4-[[4-(hydroxymethyl)-1-piperidyl]methyl]phenyl]ethynyl]-7-methyl-4-(trifluoromethyl)indazol-2-yl]-N-thiazol-2-yl-acetamide] |
| 11 | Cc1c(C#Cc2ccc(CN3CCC(CO)CC3)cc2)cc(C(F)(F)F)c2cn(C(C(=O)Nc3nccs3)c3ncn4c3CCC43CC3)nc12 (centres unmarked) [Example 7] |
| 9 | Cc1c(C#Cc2ccc(CN3CCC(CO)CC3)cc2)cc(C(F)(F)F)c2cn(C(C(=O)Nc3nccs3)c3ncn4c3CCC4)nc12 (centres unmarked) [Example 4, 2-(6,7-Dihydro-5H-pyrrolo[1,2-c]imidazol-1-yl)-2-[6-[2-[4-[[4-(hydroxymethyl)-1-piperidyl]methyl]phenyl]ethynyl]-7-methyl-4-(trifluoromethyl)indazol-2-yl]-N-thiazol-2-yl-acetamide] |
